# Biological target: T1, bovine F1Fo-ATPase (F-ATP synthase), F1 catalytic site (Bos taurus, UniProt P00829+P19483)
# T1 construct: gene ATP5F1B; native purification from heart mitochondria; with ATP synthase F(1) complex subunit gamma, mitochondrial; ATP synthase F(1) complex subunit delta, mitochondrial; ATP synthase F(1) complex subunit epsilon, mitochondrial; ATP synthase F(0) complex subunit C1, mitochondrial (subunit c); ATP synthase F(0) complex subunit a; ATP synthase subunit O, mitochondrial (OSCP); ATP synthase F(0) complex subunit B1, mitochondrial (subunit b); ATP synthase subunit d, mitochondrial; ATP synthase-coupling factor 6, mitochondrial (F6); ATP synthase protein 8 (A6L); ATP synthase subunit e, mitochondrial; ATP synthase subunit f, mitochondrial; ATP synthase subunit g, mitochondrial
# Assay: ATP synthesis in proteoliposomes with bacteriorhodopsin, luciferin-luciferase
# Type: biochemical
# Conditions: turnover only; phosphate, pH 7.4, white light, I1-60GFP present
compound,measurement,value
Nc1ncnc2c1ncn2[C@@H]1O[C@H](COP(=O)(O)OP(=O)(O)O)[C@@H](O)[C@H]1O [ADP],"ATP synthesis in proteoliposomes with bacteriorhodopsin, luciferin-luciferase","On illumination with white light, ATP was synthesized in a linear manner"
